Reference: patent publication US11319292B2, “Metabolically stable 5-HMF derivatives for the treatment of hypoxia” (King Abdulaziz University, priority 2020, dated 2022)
Each block holds one compound with its values, some of them ahead of it.

Columns and labels:
[1] = biological target: T1, Hb (Homo sapiens, UniProt P68871+P69905, E7V); test: Hb oxygen equilibrium study (P50 shift, Hemox Analyzer) on lysate of compound-treated SS cells; assay type: cell-based; settings: intact SS cells; for activation at 2000 µM: 2 mM compound; for activation at 2000 µM / activation at 5000 µM: read-out: increase in Hb oxygen affinity (ΔP50); for activation at 5000 µM: 5 mM compound; for effect on Hb affinity for oxygen: 2 mM and/or 5 mM
T1 construct: Leftover blood samples from patients with homozygous SS were obtained and utilized; from tissue; host or cells: blood (red cells, then hemolysate) of patients with homozygous SS
Description: (§1) Materials and General Procedure: Leftover blood samples from patients with homozygous SS were obtained and utilized, based on an approved IRB protocol at the Children's Hospital of Philadelphia, with informed consent.
(§2) Experimental Procedure: The MMA series of compounds (MMA-301, MMA-304, MMA-205, MMA-401, MMA-402, MMA-403, MMA-405, MMA-406, MMA-407, MMA-408, MMA-409 and MMA-410) and the positive controls vanillin and 5-HMF were studied for their abilities to inhibit hypoxia-induced RBC sickling (RBC morphology study), increase Hb oxygen, and/or modify Hb (adduct formation) as previously published.^31,33 Briefly, homozygous SS blood (hematocrit: 20%) suspensions were incubated under air in the absence or presence of 2 and/or 5 mM concentration of test compounds at 37° C. for 1 hr. Following, the suspensions were incubated under hypoxic condition (2.5% oxygen) at 37° C. for 2 hr. Aliquot samples were fixed with 2% glutaraldehyde solution without exposure to air, and then subjected to microscopic morphological analysis. The residual samples were washed in phosphate-buffered saline, and hemolyzed in hypotonic lysis buffer for the Hb oxygen equilibrium and Hb adduct experiments. For the Hb oxygen equilibrium study, approximately 100 μl aliquot samples from the lysate were added to 4 ml of 0.1M potassium phosphate buffer, pH 7.0, in a cuvette and subjected to hemoximetry analysis using Hemox™ Analyzer (TCS Scientific Corp.) to assess P50 shifts. Another aliquot from the lysate was also subjected to Hb adduct formation study using cation-exchange HPLC (Hitachi D-7000 Series, Hitachi Instruments, Inc., San Jose, Calif.) with a weak cation-exchange column (Poly CAT A: 30 mm×4.6 mm, Poly LC, Inc., Columbia, Md.). To determine the binding of the MMA compounds to either α- or β-globin chains, the hemolysates were subjected to reversed-phase (RP) HPLC on a Hitachi D-7000 HSM Series, using a Jupiter 5 μm C-4 50×4.6 mm column, (Phenomenex®, Torrence, Calif.) and a gradient from 20% to 60% acetonitrile in 0.3% trifluoroacetic acid in 15 minutes, with UV detection at 215 nm.

[2] = biological target: βCys93 of Hb (Homo sapiens, UniProt P68871); test: Reactivity toward βCys93 of Hb (DTNB disulfide exchange, absorbance at 412 nm); assay type: biochemical; settings: 2 mM compound, Hb 50 μM, four hours at 25° C.
Procedure: Experimental Procedure: Aqueous solution of Hb (50 μM) was mixed with MMA 409 or MMA 410 (2 mM). Additionally, Hb was mixed with phosphate buffered saline (PBS) to serve as a negative control. […] Ethacrynic acid, which is known to bind to the thiols of hemoglobin and thus limits the reaction between DTNB (5,5′-dithiobis-(2-nitrobenzoic acid) and βCys93, was studied as a positive control.^42 The mixtures were incubated for four hours at 25° C., and then centrifuged with washing to separate excess reagents from the Hb. The washed hemoglobin was stored overnight at 4° C. After, 5 μL of 100 mM DTNB was added to 25 μL of each Hb solution, and these solutions were each diluted to 500 μL in 0.1 M phosphate buffer and were incubated for an hour. Another 25 μL of each Hb solution was diluted to 500 μL in buffer to serve as a non-DTNB control. The tubes containing these solutions were centrifuged, and the collected yellow filtrate was quantified by measuring absorbance at 412 nm using a spectrophotometer as previously described.^42

[3] = test system: intact SS cells; test: Inhibition of hypoxia-induced RBC sickling (RBC morphology study) in homozygous SS blood; assay type: cell-based, human; settings: SS blood hematocrit 20%, 2.5% oxygen, 37° C., 2 hr
Description: as §1, §2

[4] = biological target: T2, Hb (Homo sapiens, UniProt P68871+P69905); test: In vitro time-dependent Hb oxygen equilibrium study using normal whole blood; assay type: in vitro ADME; settings: 2 mM; normal whole blood 30% hct; 37° C.; 1, 4 and 24 hr
T2 construct: Normal whole blood was collected from adult donors; from tissue; host or cells: normal whole blood of adult donors
Procedure: Materials and General Procedure: Normal whole blood was collected from adult donors at the Virginia Commonwealth University after informed consent, in accordance with regulations of the IRB for Protection of Human.
Experimental procedure: MMA-409 and the control 5-HMF were used to conduct time-dependent studies on Hb oxygen oxygen equilibrium using normal whole blood. The study was performed in a 96-well deep well (Thermo Scientific) plate, where each compound at 2 mM concentration was added to 600 μL of whole blood (30% hct) and incubated at 37° C. for 24 hr with shaking (at 140 rpm). Additionally, DMSO (1%) alone was also tested as a negative control. At 1, 4 and 24 hr time intervals, 75 μL aliquot of blood was removed from each well using a multichannel pipette and the reaction stopped by freezing at −80° C. until ready for hemoximetry analysis using Hemox™ Analyzer (TCS Scientific Corp.) to assess P50 shifts.^32 The observed P50 shifts values in % P50 shifts were plotted as function of time [hrs].

[5] = biological target: T1, Hb; test: Hb adduct formation study by cation-exchange HPLC after incubation with intact SS cells; assay type: cell-based; settings: 2 mM and/or 5 mM
Description: as §1
(§3) Experimental Procedure: The MMA series of compounds (MMA-301, MMA-304, MMA-205, MMA-401, MMA-402, MMA-403, MMA-405, MMA-406, MMA-407, MMA-408, MMA-409 and MMA-410) and the positive controls vanillin and 5-HMF were studied for their abilities to inhibit hypoxia-induced RBC sickling (RBC morphology study), increase Hb oxygen, and/or modify Hb (adduct formation) as previously published.^31,33 Briefly, homozygous SS blood (hematocrit: 20%) suspensions were incubated under air in the absence or presence of 2 and/or 5 mM concentration of test compounds at 37° C. for 1 hr. Following, the suspensions were incubated under hypoxic condition (2.5% oxygen) at 37° C. for 2 hr. Aliquot samples were fixed with 2% glutaraldehyde solution without exposure to air, and then subjected to microscopic morphological analysis. The residual samples were washed in phosphate-buffered saline, and hemolyzed in hypotonic lysis buffer for the Hb oxygen equilibrium and Hb adduct experiments. […]

[6] = biological target: T3, α- or β-globin chains (Homo sapiens, UniProt P68871+P69905, E7V); test: Reversed-phase HPLC of hemolysates for binding to α- or β-globin chains; assay type: cell-based; settings: 2 mM and 5 mM; intact SS cells; reverse-phase HPLC
T3 construct: Leftover blood samples from patients with homozygous SS were obtained and utilized; from tissue; host or cells: blood (red cells, then hemolysate) of patients with homozygous SS
Description: as §1, §3

[7] = in-vivo; aldehyde protected by L-cysteine; cited from earlier work

- activation at 2000 µM [1]: 12.7%
- activation at 5000 µM [1]: 18.2%
SMILES: CC(=O)/C=C/c1ncc[nH]1 [MMA-301, (E)-4-(1H-imidazol-2-yl)but-3-en-2-one]

- melting point: 20 °C
SMILES: CC(=O)/C=C/c1ccc(CO)o1 [MMA-404, (E)-4-(5-(hydroxymethyl)furan-2-yl)but-3-en-2-one]

- effect on Hb affinity for oxygen [1]: no effect
- melting point: 66 °C
SMILES: COC(=O)/C=C/c1ccc(CO)o1 [MMA-406, methyl (E)-3-(5-(hydroxymethyl)furan-2-yl)acrylate]

- % free thiols of βCys93 [2]: 54%
SMILES: C#CC(=O)c1ccc(COc2ccccc2)o1 [MMA-410]

- melting point: 138 °C
SMILES: O=C(O)/C=C/c1ccc(CO)o1 [MMA-401, (E)-3-(5-(hydroxymethyl)furan-2-yl)acrylic acid]

- effect on Hb affinity for oxygen [1]: no effect
SMILES: COCc1ccc(C(=O)C(F)(F)F)o1 [MMA-405, 2,2,2-trifluoro-1-(5-(methoxymethyl)furan-2-yl)ethan-1-one]

- activation at 2000 µM [1]: 22%
- activation at 5000 µM [1]: 52%
- Hb modification (adduct formation) [5]: significant Hb modification
- % free thiols of βCys93 [2]: 46%
SMILES: C=CC(=O)c1ccc(COc2ccccc2)o1 [MMA-409]
- RBC sickling (reduced to) ([3]; 2 mM compound): 49%
- RBC sickling (reduced to) ([3]; 5 mM compound): 18%
- adduct formation with globin chain [6]: exclusive adduct formation with the β-chain
- time course of biological activity (P50 shift) over 24 hr [4]: sustained throughout the 24 hr experiment

- melting point: 131 to 156 °C
SMILES: NC(=O)/C=C/c1ccc(CO)o1 [MMA-403, (E)-3-(5-(hydroxymethyl)furan-2-yl)acrylamide]

- activation at 2000 µM [1]: 16.5%
- activation at 5000 µM [1]: 22.1%
SMILES: NC(=O)C(=O)c1ncc[nH]1 [MMA-304]

Continued, compound first:

SMILES: C=C(CC)C(=O)c1ccc(OCC(=O)O)c(Cl)c1Cl [ethacrynic acid, Ethacrynic acid, reference compound]
- % free thiols of βCys93 [2]: 54%

SMILES: O=Cc1ccc(CO)o1 [5-HMF, 5-Hydroxymethylfurfural]
- RBC sickling (reduced to) ([3]; 2 mM compound): 50%
- RBC sickling (reduced to) ([3]; 5 mM compound): 14%
- activation at 2000 µM [1]: 33%
- time course of biological activity (P50 shift) over 24 hr [4]: declined rapidly

SMILES: O=C(O)C1CSC(c2ccc(CO)o2)N1 (centres unmarked) [thiazolidine complex of 5-HMF]
- extension of 5-HMF half-life [7]: 2 fold

SMILES: COc1cc(C=O)ccc1O [vanillin, reference compound]
- RBC sickling (reduced to) ([3]; 2 mM compound): 57%
- RBC sickling (reduced to) ([3]; 5 mM compound): 36%
- activation at 2000 µM [1]: 12%
- activation at 5000 µM [1]: 27%
